Reference: doi:10.1101/695973v1 (biorxiv, 2019)
Like-named read-outs stand apart in the source and are kept apart here.

Columns and labels:
[1] = test system: β-lactamase Mm3; details: 20 mM sodium phosphate, 0.2 M NaCl, pH 7.4, 30°C; Hill equation, nH 2.36
[2] = test system: β-lactamase Mm3; assay: spectrophotometric hydrolysis at […] nm, initial rates, Michaelis-Menten fit; assay type: biochemical, uncultured bacterium; details: 20 mM sodium phosphate, 0.2 M NaCl, pH 7.4, 30°C

| Km [1] | Km [2] | Compound |
| --- | --- | --- |
| 271 ± 16.4 µM | – | CC1(C)S[C@@H]2[C@H](NC(=O)[C@H](N)c3ccccc3)C(=O)N2[C@H]1C(=O)O [ampicillin] |
| – | 400 ± 42.7 µM | CC1(C)S[C@@H]2[C@H](NC(=O)C(C(=O)O)c3ccccc3)C(=O)N2[C@H]1C(=O)O (some centres unmarked) [carbenicillin] |
